Source: patent US6649394B1, “Topoisomerase IV, corresponding nucleotide sequences and uses thereof” (priority 1997, dated 2003)

What was measured:
[1] = target: T1, mutant protein GrlA(Ser-80→Tyr)B (DNA topoisomerase IV) of S. aureus (Staphylococcus aureus, UniProt P0C1S7+P0C1U9, F80Y); assay: biochemical
T1 construct: made in house; host or cells: E. coli XL1-Blue (pXL2742 for GrlA Ser-80→Tyr, pXL2320 for GrlB)
Procedure: (§1) The ATP-dependent activity of decatenation of intertwined circular DNA molecules (catenanes) can be detected by carrying out the procedure, for example, in the following manner: a mixture of an extract of the E. coli strain XL1-blue pXL2320 (2.5 μg of proteins) and of an extract of the E. coli strain XL1-blue pXL2340 (2.5 μg of proteins) is incubated for 1 h at 37° C. in 40 μl of 50 mM Tris/HCl buffer pH 7.7 containing 1 mM ATP, 6 mM MgCl2, 200 mM glutamate, 10 mM DTT, 10 mM NaCl, 50 μg/ml of bovine serum albumin and 800 ng of kinetoplast DNA [consisting of a network of intertwined DNA molecules (catenanes) obtained from Crithidia fasciculata; TopoGene]. The reaction is stopped by adding 7 μl of a 250 mM EDTA solution (incubation 5 min at 37° C.), 5 μl of a 5% SDS and 2.5 mg/ml proteinase K mixture (incubation 30 min at 37° C.). The mixture is then analysed by electrophoresis on a 1% agarose gel in a 0.1 M Tris/borate buffer pH 8.3 containing 2 mM EDTA at 6 V/cm for 2 h 30 min. After staining the DNA with ethidium bromide (1 μg/ml), the DNA is quantified by scanning the negatives of photographs of the gels (Polaroid type 665 film) with the aid of a Bioimage 50S apparatus (Millipore). […] This activity is detected by the appearance of a DNA band with a size of about 2.5 kb and by the disappearance of the band of catenated DNA of very large size which penetrates very little into the gel during the electrophoretic run (FIG. 5).
(§2) The ATP-dependent activities of supercoiled DNA relaxation, on the one hand, and of decatenation of intertwined circular DNA molecules, on the other hand, are detected in this extract as described in Example 7, by incubating, in the same reaction mixture, an acellular extract of the E. coli strain XL1-Blue pXL2742 containing the protein GrlA(Ser-80→Tyr) and an extract of the E. coli strain XL1-Blue pXL2320 containing the GrlB protein.
(§3) To carry out the experiments described in the examples which follow, the incubations are carried out with the purified wild-type GrlAB proteins as described in Example 7, and with the mutant protein GrlA(Ser-80→Tyr)B as described in Example 8. The two wild-type and mutant GrlAB proteins are reconstituted by mixing equimolar quantities of their two GrlA and GrlB subunits.

[2] = target: T2, wild-type GrlAB protein (DNA topoisomerase IV) of S. aureus (Staphylococcus aureus, UniProt P0C1S7+P0C1U9); assay: Decatenation of kinetoplast DNA by purified wild-type GrlAB protein; assay type: biochemical
T2 construct: made in house; host or cells: E. coli XL1-Blue (pXL2340 for GrlA, pXL2320 for GrlB; pRSETB vector, T7 promoter)
Procedure: as §1, §3

[3] = test system: mutant protein GrlA(Ser-80→Tyr)B (DNA topoisomerase IV) of S. aureus; assay: biochemical; design: species or system Staphylococcus aureus; settings: GrlA(Ser-80→Tyr)B versus wild-type GrlAB
Procedure: as §1, §2, §3

Row | Compound | IC50 [1] [µM] | IC50 [2] [µM] | concentration above which the activity of decatenation of kinetoplast DNA is completely inhibited ([2]; purified wild-type GrlAB enzyme) [µg/mL] | concentration for 50% inhibition with mutant enzyme relative to wild-type enzyme [3] [times]
1 | CO[C@@H]1[C@@H](OC(N)=O)[C@@H](O)[C@H](Oc2ccc3c(O)c(NC(=O)c4ccc(O)c(CC=C(C)C)c4)c(=O)oc3c2C)OC1(C)C [novobiocin] | ~49 | ~49 | – | –
2 | O=C(O)c1cn(C2CC2)c2cc(N3CCNCC3)c(F)cc2c1=O [ciprofloxacin] | – | – | > 10 | –
3 | C[C@@H]1CN(c2c(F)c(N)c3c(=O)c(C(=O)O)cn(C4CC4)c3c2F)C[C@H](C)N1 [sparfloxacin] | 1270 | 15.3 | – | 80
4 | CC1COc2c(N3CCN(C)CC3)c(F)cc3c(=O)c(C(=O)O)cn1c23 (centres unmarked) [Ofloxacin] | 692 | 27.7 | – | –
